The results in this text go back to patent publication US20250268903A1, “RXFP1 AGONISTS” (BRISTOL-MYERS SQUIBB COMPANY, priority 2021, published 2025).

One may read the EC50 as the concentration needed to bring the measured effect to its halfway point. Lower therefore signals a more potent agent.

The target in this experiment is T1, human RXFP1 (Homo sapiens, UniProt Q9HBX9).
T1 construct: expressed in transfected cells
T1 sequence (Q9HBX9 1-757): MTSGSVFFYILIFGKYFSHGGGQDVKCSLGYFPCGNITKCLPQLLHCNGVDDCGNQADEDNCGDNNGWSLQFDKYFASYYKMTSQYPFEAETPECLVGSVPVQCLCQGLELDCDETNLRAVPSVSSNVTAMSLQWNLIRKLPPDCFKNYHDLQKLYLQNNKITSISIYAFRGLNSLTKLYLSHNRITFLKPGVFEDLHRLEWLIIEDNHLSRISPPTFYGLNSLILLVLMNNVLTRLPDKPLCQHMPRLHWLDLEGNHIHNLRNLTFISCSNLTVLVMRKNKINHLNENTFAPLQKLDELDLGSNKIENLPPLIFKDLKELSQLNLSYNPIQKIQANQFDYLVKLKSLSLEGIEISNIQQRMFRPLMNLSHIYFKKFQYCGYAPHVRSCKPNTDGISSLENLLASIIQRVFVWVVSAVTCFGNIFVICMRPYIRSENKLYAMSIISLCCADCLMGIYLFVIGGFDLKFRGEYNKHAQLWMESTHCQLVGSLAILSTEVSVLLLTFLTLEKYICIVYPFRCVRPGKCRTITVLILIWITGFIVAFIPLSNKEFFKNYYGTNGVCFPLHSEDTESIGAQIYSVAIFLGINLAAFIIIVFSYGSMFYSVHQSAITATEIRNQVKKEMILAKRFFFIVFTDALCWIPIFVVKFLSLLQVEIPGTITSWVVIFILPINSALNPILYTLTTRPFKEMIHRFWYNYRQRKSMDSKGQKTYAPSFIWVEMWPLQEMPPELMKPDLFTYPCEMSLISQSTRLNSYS
Description: hRXFP1 HEK293 cAMP assay (HTRF). The conditions noted are these: HEK293 cells stably expressing human RXFP1, 30 min at room temperature. The format is cell-based. Here is the method: RXFP1 Cyclic Adenosine Monophosphate (cAMP) Assays. […] Cells were dissociated and suspended in assay buffer. The assay buffer was HBSS buffer (with calcium and magnesium) containing 20 mM HEPES, 0.05% BSA, and 0.5 mM IBMX. Cells (3000 cells per well, except 1500 cell per well for HEK293 cells stably expressing human RXFP1) were added to 384-well Proxiplates (Perkin-Elmer). Cells were immediately treated with test compounds in DMSO (2% final) at final concentrations in the range of 0.010 nM to 50 μM. Cells were incubated for 30 min at room temperature. The level of intracellular cAMP was determined using the HTRF HiRange cAMP assay reagent kit (Cisbio) according to manufacturer's instructions. Solutions of cryptate conjugated anti-cAMP and d2 fluorophore-labelled cAMP were made in a supplied lysis buffer separately. Upon completion of the reaction, the cells were lysed with equal volume of the d2-cAMP solution and anti-cAMP solution. […] The potency and activity of a compound to […] cAMP production was then determined by fitting to a 4-parametric logistic equation from a plot of cAMP level versus compound concentrations.
(Cyclic AMP is a second messenger, typically raised through Gs and lowered through Gi signalling.)
As to `COc1ccc(CCC(C)(C)O)cc1C(=O)NC1C2CCC(/C2=C/C2CCCOC2)[C@@H]1C(=O)Nc1ccc(F)c(C(F)(F)F)c1` (single isomer, unassigned) [Example 173, (7Z)-N-[4-fluoro-3-(trifluoromethyl)phe-nyl]-3-[5-(3-hydroxy-3-methylbutyl)-2-methoxybenzamido]-7-[(oxan-3-yl)methylidene]bicy-clo[2.2.1]heptane-2-carboxamide], a half-maximal effect (EC50) was put at 186 nM. This counts as sub-micromolar.

Turning to `COc1ccc(S(N)(=O)=O)cc1C(=O)N[C@@H]1C2CCC(C2=C(C)C)[C@@H]1C(=O)Nc1ccc(F)c(C(F)(F)F)c1` (stereo partly drawn) [Example 207, (2S,3R)-N-[4-fluoro-3-(trifluoromethyl)phenyl]-3-(2-methoxy-5-sulfamoylbenzamido)-7-(propan-2-ylidene)bicyclo[2.2.1] heptane-2-carboxamide], the EC50 is 890 nM.

`COc1ccc(CCC(N)=O)cc1C(=O)NC1C2CCC(/C2=C/C(F)(F)F)[C@@H]1C(=O)Nc1ccc(F)c(C(F)(F)F)c1` (stereo partly drawn) [Example 140, (2S,3R,7Z)-3-[5-(2-carbamoylethyl)-2-methoxybenzamido]-N-[4-fluoro-3-(trifluoromethyl)phe-nyl]-7-(2,2,2-trifluoroethylidene)bi-cyclo[2.2.1]heptane-2-carboxamide]: the EC50 was 736 nM.

`COc1ccc(/C=C/C(=O)N2CCC(O)CC2)cc1C(=O)N[C@@H]1C2CCC(/C2=C/C(F)(F)F)[C@@H]1C(=O)Nc1ccc(F)c(C(F)(F)F)c1` (stereo partly drawn) [Example 125, (2S,3R,7Z)-N-[4-fluoro-3-(trifluoromethyl)phe-nyl]-3-{5-[(1E)-3-(4-hydroxypiperidin-1-yl)-3-oxoprop-1-en-1-yl]-2-methoxybenzamido}-7-(2,2,2-trifluoroethylidene)bi-cyclo[2.2.1]heptane-2-carboxamide]: the EC50 amounted to 13 nM. Compared with the last molecule, the EC50 is about 57-fold lower.

In the case of `COc1ccc(CCCO)cc1C(=O)N[C@@H]1C2CCC(/C2=C/C2CCC2)[C@@H]1C(=O)Nc1ccc(F)c(C(F)(F)F)c1` (stereo partly drawn) [Example 86, (2S,3R,7Z)-7-(cyclobutylmethyli-dene)-N-[4-fluoro-3-(trifluoromethyl)phe-nyl]-3-[5-(3-hydroxypropyl)-2-methoxybenzamido] bicyclo[2.2.1]heptane-2-carboxamide], the midpoint of the response, the EC50, lay at 45 nM. This EC50 is about 3.5-fold higher than that of the molecule before.

With `COc1c(F)cc(C(=O)NCC2(S(C)(=O)=O)CC2)cc1C(=O)N[C@H]1[C@@H](C(=O)N[C@H](C)C2(C)CC2)[C@H]2CC[C@@H]1/C2=C\c1cnc(C(F)(F)F)s1` [Example 373, 5-fluoro-N1-[(1-methanesulfonyl-cyclopropyl)methyl]-4-methoxy-N3-[(1R,2R,3S,4R,7Z)-3-{[(1R)-1-(1-methylcyclopropyl)ethyl]carbamoyl}-7-{[2-(trifluoromethyl)-1,3-thiazol-5-yl]methylidene}bicyclo[2.2.1]heptan-2-yl]benzene-1,3-dicarboxamide], a half-maximal effect (EC50) was put at 3.6 nM.

Consider `COc1ccc(CCC(C)(C)O)cc1C(=O)NC1C2CCC(/C2=C/C2CC(F)(F)C2)[C@@H]1C(=O)Nc1ccc(F)c(C(F)(F)F)c1` (stereo partly drawn) [Example 160, (2S,3R,7Z)-7-[(3,3-difluorocyclobutyl)methylidene]-N-[4-fluoro-3-(trifluoromethyl)phe-nyl]-3-[5-(3-hydroxy-3-methylbutyl)-2-methoxybenzamido] bicyclo[2.2.1]heptane-2-carboxamide], for which the EC50 was determined as 51 nM.

In the case of `COc1ccc(C(=O)NC(C)(C)C)cc1C(=O)N[C@H]1[C@@H](C(=O)Nc2ccc(F)c(C(F)(F)F)c2)[C@H]2CC[C@@H]1/C2=C\C1CC1` [Example 236, N1-tert-butyl-N3-[(1R,2R,3S,4R,7Z)-7-(cyclopropyl-methylidene)-3-{[4-fluoro-3-(trifluoromethyl)phenyl]carbamoyl}bicyclo[2.2.1]heptan-2-yl]-4-methoxybenzene-1,3-dicarboxamide], the EC50 came to 234 nM.

Take `COc1ccc(/C=C/C(=O)N[C@H]2C[C@@H](O)C2)cc1C(=O)N[C@@H]1C2CCC(/C2=C/C2CC2)[C@@H]1C(=O)Nc1ccc(F)c(C(F)(F)F)c1` (stereo partly drawn) [Example 128, (2S,3R,7Z)-7-(cyclopropylmethyli-dene)-N-[4-fluoro-3-(trifluoromethyl)phe-nyl]-3-{2-methoxy-5-[(1E)-2-{[(1s,3s)-3-hydroxycyclobutyl]carbamoyl}eth-1-en-1-yl]benzamido}bicyclo [2.2.1]heptane-2-carboxamide]: the EC50 came out at 96 nM.

The molecule `COc1ccc(C(=O)N2CC[C@@H](O)C2)cc1C(=O)N[C@H]1[C@@H](C(=O)Nc2ccc(F)c(C(F)(F)F)c2)[C@H]2CC[C@@H]1/C2=C\C1CC1` [Example 244, (1R,2S,3R,4R,7Z)-7-(cyclopropyl-methylidene)-N-[4-fluoro-3-(trifluoromethyl)phenyl]-3-{5-[(3R)-3-hydroxypyrrolidine-1-carbonyl]-2-methoxybenzamido} bicyclo[2.2.1]heptane-2-carboxamide] displayed an EC50 of 11 nM.

On to `COc1ccc(CN2C(=O)CN(CCO)C2=O)cc1C(=O)N[C@H]1[C@@H](C(=O)Nc2ccc(F)c(C(F)(F)F)c2)[C@H]2CC[C@@H]1/C2=C\C1CC1` [Example 294, (1R,2S,3R,4R,7Z)-7-(cyclopropyl-methylidene)-N-[4-fluoro-3-(trifluoromethyl)phenyl]-3-(5-{[3-(2-hydroxyethyl)-2,5-dioxoimidazolidin-1-yl]methyl}-2-methoxybenzamido) bicyclo[2.2.1]heptane-2-carboxamide], for which the EC50 came to 117 nM. This EC50 lies about 11-fold higher than the previous one.

As for `COc1ccc(S(=O)(=O)N2CCN(C)CC2CO)cc1C(=O)N[C@H]1[C@@H](C(=O)Nc2ccc(F)c(C(F)(F)F)c2)[C@H]2CC[C@@H]1/C2=C\C(F)(F)F` (stereo partly shown) [Example 218], the EC50 is 714 nM.

`COc1ccc(CCCO)cc1C(=O)N[C@H]1[C@@H](C(=O)Nc2ccc(F)c(C(F)(F)F)c2)[C@H]2CC[C@@H]1/C2=C\C(C)C` [Example 157, (1R,2S,3R,4R,Z)—N-(4-fluoro-3-(trifluoromethyl)phenyl)-3-(5-(3-hydroxypropyl)-2-methoxybenzamido)-7-(2-methylpropylidene) bicyclo[2.2.1]heptane-2-carboxamide] displayed an EC50 of 54 nM.

As to `COc1ccc(C2CC3CC(CO)CC32)cc1C(=O)N[C@H]1[C@@H](C(=O)Nc2ccc(F)c(C(F)(F)F)c2)[C@H]2CC[C@@H]1/C2=C\C1CC1` (single isomer, unassigned) [Example 352], the EC50 stood at 49.9 nM.

In turn, `COc1ccc(S(=O)(=O)CCO)cc1C(=O)N[C@H]1[C@@H](C(=O)Nc2ccc(F)c(C(F)(F)F)c2)[C@H]2CC[C@@H]1/C2=C\C(F)(F)F` [Example 4, (1R,2S,3R,4R,Z)—N-(4-fluoro-3-(trifluoromethyl)phenyl)-3-(5-((2-hydroxyethyl)sulfonyl)-2-methoxybenzamido)-7-(2,2,2-trifluoroethylidene) bicyclo[2.2.1]heptane-2-carboxamide] registered an EC50 of 337 nM.

`COc1ccc(COCC2CC(F)(F)C2)cc1C(=O)N[C@H]1[C@@H](C(=O)Nc2ccc(F)c(C(F)(F)F)c2)[C@H]2CC[C@@H]1/C2=C\C1CC1` [Example 283, (1R,2S,3R,4R,7Z)-7-(cyclopropyl-methylidene)-3-(5-{[(3,3-difluorocyclobutyl)methoxy]methyl}-2-methoxybenzamido)-N-[4-fluoro-3-(trifluoromethyl)phenyl] bicyclo[2.2.1] heptane-2-carboxamide] displayed an EC50 of 110 nM. Compared with the last molecule, the EC50 is about 3.1-fold lower.

Consider `COc1ccc(CCCNC(=O)OC(C)(C)C)cc1C(=O)N[C@@H]1C2CCC(/C2=C/C(F)(F)F)[C@@H]1C(=O)Nc1ccc(F)c(C(F)(F)F)c1` (stereo partly shown) [Example 109], for which the EC50 is 2080 nM.

`COc1ccc(COCC2CC3(C2)OCCO3)cc1C(=O)N[C@H]1[C@@H](C(=O)Nc2ccc(F)c(C(F)(F)F)c2)[C@H]2CC[C@@H]1/C2=C\C1CC1` [Example 286] came in with an EC50 of 121 nM.

Regarding `COc1ccc(CCC(=O)N2CC[C@H](O)C2)cc1C(=O)N[C@@H]1C2CCC(/C2=C/C(F)(F)F)[C@@H]1C(=O)Nc1ccc(F)c(C(F)(F)F)c1` (stereo partly drawn) [Example 138, (2S,3R,7Z)-N-[4-fluoro-3-(trifluoromethyl)phe-nyl]-3-(5-{3-[(3S)-3-hydroxypyrrolidin-1-yl]-3-oxopropyl}-2-methoxybenzamido)-7-(2,2,2-trifluoroethylidene)bi-cyclo[2.2.1]heptane-2-carboxamide], the EC50 was found to be 428 nM.
